Our source for the IC50 and ED50 values is patent publication EP0970067B1, “(METHYLSULFONYL)PHENYL-2-(5H)-FURANONES WITH OXYGEN LINK AS COX-2 INHIBITORS” (Merck Frosst Canada & Co., priority 1997, dated 1998).

Bounds are passed on as bounds.

Test [1] deals with T1, COX-2 (Homo sapiens, UniProt P35354).
T1 sequence (P35354 18-604): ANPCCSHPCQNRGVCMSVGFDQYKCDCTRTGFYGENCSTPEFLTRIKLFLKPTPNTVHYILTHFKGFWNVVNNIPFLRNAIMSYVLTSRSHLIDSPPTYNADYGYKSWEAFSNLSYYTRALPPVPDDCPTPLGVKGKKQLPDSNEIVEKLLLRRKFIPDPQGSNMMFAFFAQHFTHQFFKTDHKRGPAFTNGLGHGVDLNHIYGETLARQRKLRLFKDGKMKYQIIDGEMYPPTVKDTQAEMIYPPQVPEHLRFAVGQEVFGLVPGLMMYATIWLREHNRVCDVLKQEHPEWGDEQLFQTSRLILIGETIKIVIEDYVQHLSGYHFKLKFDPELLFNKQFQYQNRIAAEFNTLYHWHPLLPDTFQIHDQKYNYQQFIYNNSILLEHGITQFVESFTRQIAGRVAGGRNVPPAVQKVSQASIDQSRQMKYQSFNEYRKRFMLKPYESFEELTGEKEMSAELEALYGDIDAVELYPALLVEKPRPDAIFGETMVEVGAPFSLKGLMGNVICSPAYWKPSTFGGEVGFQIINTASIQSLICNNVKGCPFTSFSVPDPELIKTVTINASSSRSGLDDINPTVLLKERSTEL
As to the kind of experiment: Human whole blood assay, COX-2 (LPS-induced PGE2 production). Further details: endogenous in cells; host or cells: fresh heparinized human whole blood from volunteers, stimulated with LPS. The format is cell-based. The settings on record: LPS 100 µg/ml, 24 hours at 37°C, read-out: COX-2 (IC50) HWB. From the text:
As well, platelets in whole blood contain a large amount of the COX-1 enzyme. Immediately following blood clotting, platelets are activated through a thrombin-mediated mechanism. This reaction results in the production of thromboxane B2 (TxB2) via activation of COX-1. Thus, the effect of test compounds on TxB2 levels following blood clotting can be examined and used as an index for COX-1 activity. Therefore, the degree of selectivity by the test compound can be determined by measuring the levels of PGE2 after LPS induction (COX-2) and TxB2 following blood clotting (COX-1) in the same assay.
Fresh blood is collected in heparinized tubes by venipuncture from both male and female volunteers. The subjects have no apparent inflammatory conditions and have not taken any NSAIDs for at least 7 days prior to blood collection. Plasma is immediately obtained from a 2mL blood aliquot to use as blank (basal levels of PGE2). The remaining blood is incubated with LPS (100 µg/ml final concentration, Sigma Chem, #L-2630 from E. coli; diluted in 0.1% BSA (Phosphate buffered saline) for 5 minutes at room temperature. Five hundred µL aliquots of blood are incubated with either 2µL of vehicle (DMSO) or 2µL of a test compound at final concentrations varying from 10nM to 30µM for 24 hours at 37°C. At the end of the incubation, the blood is centrifuged at 12,000 x g for 5 minutes to obtain plasma. A 100µL aliquot of plasma is mixed with 400µL of methanol for protein precipitation. The supernatant is obtained and is assayed for PGE2 using a radioimmunoassay kit (Amersham, RPA#530) after conversion of PGE2 to its methyl oximate derivative according to the manufacturer's procedure.

Test [2] addresses T1, COX-2. As to the kind of experiment: Whole cell COX-2 assay using CHO transfected cell line (PGE2 radioimmunoassay). The format is cell-based. Further details: expressed in transfected cells; host or cells: CHO [hCOX-2], stably transfected with pCDNAIII. Particulars: CHO [hCOX-2] cells; PGE2 synthesis in response to arachidonic acid. As for the experimental part:
(§1) Compounds are tested as inhibitors of cyclooxygenase activity in whole cell cyclooxygenase assays. These assays measure prostaglandin E2 synthesis in response to arachidonic acid, using a radioimmunoassay. Cells used for these assays are chinese hamster ovary (CHO) cell lines which have been stably transfected with an eukaryotic expression vector […] containing either the human Cox-1 or Cox-2 CDNA's. U937 cell microsomes are also used to measure Cox-1 activity.
Chinese hamster ovary (CHO) cell lines which have been stably transfected with an eukaryotic expression vector pCDNAIII containing either the human COX-1 or COX-2 cDNA's are used for the assay. These cell lines are referred to as CHO [hCOX-1] and CHO [hCOX-2], respectively. For cyclooxygenase assays, CHO[hCOX-1] cells from suspension cultures and CHO[hCOX-2] cells prepared by trypsinization of adherent cultures are harvested by centrifugation (300 x g, 10 min) and washed once in HBSS containing 15 mM HEPES, pH 7.4, and resuspended in HBSS, 15 mM HEPES, pH 7.4, at a cell concentration of 1.5 x 10^6 cells/ml. Drugs to be tested are dissolved in DMSO to 66.7-fold the highest test drug concentration. […] Cells (0.3 x 10^6 cells in 200 µl) are preincubated with 3 µl of the test drug or DMSO vehicle for 15 min at 37°C. Working solutions of peroxide-free AA (5.5 µM and 110 µM AA for the CHO [hCOX-1] and CHO [COX-2] assays, respectively) are prepared by a 10-fold dilution of a concentrated AA solution in ethanol into HBSS containing 15 mM HEPES, pH 7.4.
In the assay, inhibition is determined by measuring the amount of prostaglandin E2 (PGE2) synthesized in the presence of arachidonic acid, cyclooxygenase-1 or cyclooxygenase-2 and a putative inhibitor.

For a further test, the system named is Rat Paw Edema. The test is described as follows: Rat paw edema assay (carrageenan-induced). The format is in vivo, Male Sprague-Dawley rats. The settings on record: po, 1 hr before subplantar carrageenan, paw volume measured three hr later. On the procedure: Male Sprague-Dawley rats (150-200 g) are fasted overnight and are given, po, either vehicle (1% methocel or 5% Tween 80) or a test compound. One hr later, a line is drawn using a permanent marker at the level above the ankle in one hind paw to define the area of the paw to be monitored. The paw volume (V0) is measured using a plethysmometer (Ugo-Basile, Italy) based on the principle of water displacement. The animals are then injected subplantarly with […] of 1% carrageenan solution in saline (FMC Corp, Maine) into the paw using an insulin syringe with a 25-gauge needle (i.e. […] carrageenan per paw). Three hr later, the paw volume (V3) is measured and the increases in paw volume (V3 - VO) are calculated. The animals are sacrificed by CO2 asphyxiation and the absence or presence of stomach lesions scored. Data is compared with the vehicle-control values and percent inhibition calculated. All treatment groups are coded to eliminate observer bias.
(In the carrageenan paw model, swelling and tenderness develop within hours.)

A further test deals with T2, human COX-1 (Homo sapiens, UniProt P23219).
T2 construct: expressed in transfected cells; host or cells: CHO [hCOX-1], stably transfected with pCDNAIII
The test is described as follows: Whole cell COX-1 assay using CHO transfected cell line (PGE2 radioimmunoassay). The class given is cell-based. The settings on record: CHO [hCOX-1] cells; PGE2 synthesis in response to arachidonic acid. As for the experimental part: as §1
Chinese hamster ovary (CHO) cell lines which have been stably transfected with an eukaryotic expression vector pCDNAIII containing either the human COX-1 or COX-2 cDNA's are used for the assay. These cell lines are referred to as CHO [hCOX-1] and CHO [hCOX-2], respectively. […]
Compounds of the present invention are inhibitors of cyclooxygenase-2 and are thereby useful in the treatment of cyclooxygenase-2 mediated diseases as enumerated above. […] In the assay, inhibition is determined by measuring the amount of prostaglandin E2 (PGE2) synthesized in the presence of arachidonic acid, cyclooxygenase-1 or cyclooxygenase-2 and a putative inhibitor.

T2 sequence (P23219 24-599): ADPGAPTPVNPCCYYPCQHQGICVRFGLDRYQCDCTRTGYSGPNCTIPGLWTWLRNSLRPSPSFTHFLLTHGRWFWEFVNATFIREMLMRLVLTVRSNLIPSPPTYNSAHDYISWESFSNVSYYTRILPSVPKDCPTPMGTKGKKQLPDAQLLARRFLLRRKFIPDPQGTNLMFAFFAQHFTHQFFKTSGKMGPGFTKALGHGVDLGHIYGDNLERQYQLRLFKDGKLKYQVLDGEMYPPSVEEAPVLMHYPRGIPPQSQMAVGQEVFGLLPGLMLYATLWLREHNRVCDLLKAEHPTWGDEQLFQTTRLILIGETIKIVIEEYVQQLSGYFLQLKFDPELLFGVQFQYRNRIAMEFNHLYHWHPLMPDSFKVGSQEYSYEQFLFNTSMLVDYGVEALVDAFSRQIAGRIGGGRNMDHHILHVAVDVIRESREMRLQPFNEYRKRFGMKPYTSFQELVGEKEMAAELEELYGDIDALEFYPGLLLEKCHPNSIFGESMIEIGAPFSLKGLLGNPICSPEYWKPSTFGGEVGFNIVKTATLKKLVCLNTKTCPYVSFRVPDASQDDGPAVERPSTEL

The term IC50 denotes the concentration that gives 50% inhibition. Broadly, the ED50 is the dose that gives a 50% effect, or the effect in half of the subjects. On to `CC1(C)OC(=O)C(OC2CCC(F)(F)CC2)=C1c1ccc(S(C)(=O)=O)cc1` [Example 17], for which the figures for the IC50 at COX-2 [1] and against COX-2 [2] were 600 nM and 300 nM, respectively. The molecule further displayed a 50% effective dose (ED50) in the test with Rat Paw Edema of 0.9 mg/kg.
`C[C@@H](CO)COC1=C(c2ccc(S(C)(=O)=O)cc2)C(C)(C)OC1=O` [Example 8, 3-(((2S)-3-hydroxy-2-methylpropyl)oxy)-5,5-dimethyl-4(4-methyl-sulfonylphenyl)-5H-furan-2-one]: the IC50 on COX-2 [1] and against COX-2 [2] was 500 nM in each case. The same molecule displayed a 50% effective dose (ED50) in the test on Rat Paw Edema of 3.1 mg/kg.
In the case of `C[C@H](CF)COC1=C(c2ccc(S(C)(=O)=O)cc2)C(C)(C)OC1=O` [Example 11, 3-(((2S)-3-fluoro-2-methylpropyl)oxy)-5,5-dimethyl-4-(4-methylsulfonylphenyl)-5H-furan-2-one], on human COX-1, the concentration for half-maximal inhibition (IC50) is greater than 50000 nM. Further, in the test with Rat Paw Edema, the ED50 turned out to be 2.3 mg/kg.
The molecule `C[C@@H](CF)COC1=C(c2ccc(S(C)(=O)=O)cc2)C(C)(C)OC1=O` [Example 10, 3-(((2R)-3-Fluoro-2-methylpropyl)oxy)-5,5-dimethyl-4-(4-methylsulfonylphenyl)-5H-furan-2-one] returned an IC50 on human COX-1 of 100000 nM. Further, it took a dose of 3.2 mg/kg to reach the 50% effect level in the test on Rat Paw Edema (ED50).
